Data published in ChEMBL document CHEMBL1201862, “PubChem BioAssay data set” (2004).
The source made the active and inactive calls.

Assays:
[1] = molecular target: T1, Microphthalmia-associated transcription factor (Homo sapiens, UniProt O75030); assay: TRPM1 promoter luciferase signal decrease, dose response, MITF inhibitor project, cell-based, SK-MEL-5, cherry-picked, set 3 (AID 493073); assay type: functional
T1 sequence (O75030 whole entry): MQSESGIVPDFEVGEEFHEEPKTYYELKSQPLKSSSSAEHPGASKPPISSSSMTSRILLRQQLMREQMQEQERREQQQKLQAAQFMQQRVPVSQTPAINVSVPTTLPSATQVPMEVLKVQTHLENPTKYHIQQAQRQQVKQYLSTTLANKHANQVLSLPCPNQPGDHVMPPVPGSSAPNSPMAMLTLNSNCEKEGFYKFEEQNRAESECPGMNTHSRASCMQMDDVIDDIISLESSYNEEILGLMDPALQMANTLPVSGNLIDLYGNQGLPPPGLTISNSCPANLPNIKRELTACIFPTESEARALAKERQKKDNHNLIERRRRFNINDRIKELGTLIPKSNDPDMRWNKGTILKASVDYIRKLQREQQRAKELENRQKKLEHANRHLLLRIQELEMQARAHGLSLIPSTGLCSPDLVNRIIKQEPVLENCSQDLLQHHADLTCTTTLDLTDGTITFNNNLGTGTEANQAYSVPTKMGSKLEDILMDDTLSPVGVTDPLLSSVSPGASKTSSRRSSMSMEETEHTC

H4 = assay: Luminescence Cell-Based Dose Response HTS to Identify Activators of 5'UTR Stem-Loop Driven Prion Protein mRNA Translation in H4 Neuroglioblastoma Cells. [Related pubchem assays: 1829 (Project Summary), 1814 (Primary HTS)]; assay type: functional; details: Homo sapiens
cells = assay type: functional
[2] = Vero E6 cell cytotoxicity, dose response, cytotoxicity control for non-replicating M. tuberculosis project, secondary assay (AID 492998); assay type: functional, VeroE6; details: Vero C1008
[3] = THP-1 cell cytotoxicity, dose response, cytotoxicity control for non-replicating M. tuberculosis project (AID 489025); assay type: functional
[4] = Luminescence Cell-Based Dose Retest to Confirm Inhibitors of Cancer Stem Cells. [Related pubchem assays (depositor defined):AID2717, AID2721]; assay type: functional; details: Homo sapiens
[5] = Luminescence Cell-Based Dose Response HTS to Identify Activators of Luciferase Translation or Activity in H4 […] Cells. [Related pubchem assays: 1829 (Project Summary), 1814 (Primary HTS)]; assay type: functional
[6] = Luminescence Cell-Based Dose Confirmation HTS to Identify Activators of 5'UTR Stem-Loop Driven Alpha-Synuclein mRNA Translation in H4 Neuroglioblastoma Cells. [Related pubchem assays: 1829 (Project Summary), 1814 (Primary HTS)]; assay type: functional
HEK293 [7] = assay: NOD1 signaling inhibitors, primary screen, cell-based, luminescence, uHTS (AID 1578); assay type: functional; details: Homo sapiens
HEK293 [8] = assay: cells; assay type: functional, cell-based; details: Homo sapiens
Mucolipin-3 = Mucolipin-3 (Homo sapiens, UniProt Q8TDD5); assay: Fluorescence counterscreen assay for […] agonists: dose response cell-based high-throughput screening assay to identify agonists of the transient receptor potential channel ML3 (TRPML3). [Related pubchem assays: 1424, 1448 ]; assay type: functional
HEK293 [9] = assay: NOD2 signaling inhibitors in MDP-stimulated cells, cell-based, uHTS, luminescence (AID 2001); assay type: functional; details: Homo sapiens
Ion channel NompC = Ion channel NompC (Danio rerio, UniProt Q7T1G6); assay: Dose response cell-based high-throughput screening assay for agonists of the transient receptor potential channel N1 (TRPN1). [Related pubchem assays (depositor defined):AID1424, AID1448]; assay type: functional
Protein skinhead-1 = molecular target: T2, Protein skinhead-1 (Caenorhabditis elegans, UniProt P34707); assay type: functional
T2 sequence (P34707 whole entry): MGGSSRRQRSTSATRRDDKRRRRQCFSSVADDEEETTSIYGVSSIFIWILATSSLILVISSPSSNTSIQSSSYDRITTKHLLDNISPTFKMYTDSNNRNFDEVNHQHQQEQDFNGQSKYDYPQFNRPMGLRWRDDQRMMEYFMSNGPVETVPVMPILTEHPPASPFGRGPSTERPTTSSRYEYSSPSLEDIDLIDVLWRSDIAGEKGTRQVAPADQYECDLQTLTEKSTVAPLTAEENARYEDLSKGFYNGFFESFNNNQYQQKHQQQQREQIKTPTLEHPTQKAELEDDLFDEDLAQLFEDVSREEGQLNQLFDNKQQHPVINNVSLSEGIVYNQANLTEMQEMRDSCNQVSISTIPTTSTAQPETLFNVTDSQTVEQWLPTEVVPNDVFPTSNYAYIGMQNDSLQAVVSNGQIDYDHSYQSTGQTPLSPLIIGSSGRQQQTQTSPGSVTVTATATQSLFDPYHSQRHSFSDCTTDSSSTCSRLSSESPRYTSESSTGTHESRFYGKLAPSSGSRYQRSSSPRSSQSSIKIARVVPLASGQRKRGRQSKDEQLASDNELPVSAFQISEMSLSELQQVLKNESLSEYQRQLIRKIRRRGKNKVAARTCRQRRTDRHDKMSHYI

[10] = molecular target: Glyceraldehyde-3-phosphate dehydrogenase (Homo sapiens, UniProt P04406)
[11] = molecular target: T3, Alkaline phosphatase, tissue-nonspecific isozyme (Homo sapiens, UniProt P05186); assay: human TNAP enzyme inhibitors, SAR follow-up, biochemical, luminescent, dose response (AID 1056)
T3 sequence (P05186 whole entry): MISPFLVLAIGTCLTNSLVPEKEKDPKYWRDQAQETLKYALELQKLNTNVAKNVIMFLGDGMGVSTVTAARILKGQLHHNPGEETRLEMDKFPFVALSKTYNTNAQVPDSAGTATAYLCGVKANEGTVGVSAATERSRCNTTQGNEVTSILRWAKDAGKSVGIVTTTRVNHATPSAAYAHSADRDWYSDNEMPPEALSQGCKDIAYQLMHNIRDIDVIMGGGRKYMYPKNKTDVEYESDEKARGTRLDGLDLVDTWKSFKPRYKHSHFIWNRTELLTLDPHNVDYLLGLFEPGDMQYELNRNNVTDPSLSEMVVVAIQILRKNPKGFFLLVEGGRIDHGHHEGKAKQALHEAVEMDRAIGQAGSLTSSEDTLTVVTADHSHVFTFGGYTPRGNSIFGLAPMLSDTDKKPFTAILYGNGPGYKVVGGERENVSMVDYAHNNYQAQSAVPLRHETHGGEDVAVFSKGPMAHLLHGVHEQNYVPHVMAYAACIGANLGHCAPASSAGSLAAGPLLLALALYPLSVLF

[12] = molecular target: T4, Sentrin-specific protease 6 (Homo sapiens, UniProt Q9GZR1); assay type: functional;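 further: Luminescence-based dose-response confirmatory assay of SENP6 inhibition, following up an ultra-high-throughput screen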
T4 sequence (Q9GZR1 whole entry): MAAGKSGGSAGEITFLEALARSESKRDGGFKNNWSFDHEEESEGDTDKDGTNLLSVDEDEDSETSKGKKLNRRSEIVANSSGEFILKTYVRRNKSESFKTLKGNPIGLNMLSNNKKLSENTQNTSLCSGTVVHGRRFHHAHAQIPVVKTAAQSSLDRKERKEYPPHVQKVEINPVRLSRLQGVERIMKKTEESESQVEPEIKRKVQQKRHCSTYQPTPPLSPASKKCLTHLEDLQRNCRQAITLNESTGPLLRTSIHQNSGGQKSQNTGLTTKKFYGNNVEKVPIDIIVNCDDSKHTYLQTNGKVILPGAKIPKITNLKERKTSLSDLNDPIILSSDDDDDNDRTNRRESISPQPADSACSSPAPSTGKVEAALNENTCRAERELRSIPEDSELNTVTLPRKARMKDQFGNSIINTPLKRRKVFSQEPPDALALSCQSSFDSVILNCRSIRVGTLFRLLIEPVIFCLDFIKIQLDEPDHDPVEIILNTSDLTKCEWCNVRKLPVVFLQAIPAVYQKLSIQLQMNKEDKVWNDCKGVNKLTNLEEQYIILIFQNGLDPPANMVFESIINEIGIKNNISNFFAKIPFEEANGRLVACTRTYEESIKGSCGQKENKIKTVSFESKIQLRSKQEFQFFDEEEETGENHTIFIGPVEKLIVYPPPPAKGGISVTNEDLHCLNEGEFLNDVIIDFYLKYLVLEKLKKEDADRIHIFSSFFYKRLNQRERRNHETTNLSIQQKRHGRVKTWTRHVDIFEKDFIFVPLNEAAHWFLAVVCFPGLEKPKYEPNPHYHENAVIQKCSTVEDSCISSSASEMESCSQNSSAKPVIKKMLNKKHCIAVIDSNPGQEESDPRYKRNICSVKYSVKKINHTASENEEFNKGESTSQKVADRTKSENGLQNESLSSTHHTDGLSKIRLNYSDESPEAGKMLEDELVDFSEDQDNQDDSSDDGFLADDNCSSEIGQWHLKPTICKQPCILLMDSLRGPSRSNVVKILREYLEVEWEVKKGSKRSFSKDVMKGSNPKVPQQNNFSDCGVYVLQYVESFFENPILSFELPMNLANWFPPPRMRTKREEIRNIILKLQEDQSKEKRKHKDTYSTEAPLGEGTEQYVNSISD

[13] = molecular target: T5, Voltage-gated N-type calcium channel alpha-1B subunit/Amyloid beta A4 precursor protein-binding family A member 1 (Homo sapiens, UniProt Q00975+Q02410); assay type: protein assay
Caspase-3 = molecular target: T6, Caspase-3 (Homo sapiens, UniProt P42574); assay type: functional;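 further: Dose-response selectivity test against caspase-3 for candidate inhibitors of sentrin-specific proteases (SENPs)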
T6 sequence (P42574 whole entry): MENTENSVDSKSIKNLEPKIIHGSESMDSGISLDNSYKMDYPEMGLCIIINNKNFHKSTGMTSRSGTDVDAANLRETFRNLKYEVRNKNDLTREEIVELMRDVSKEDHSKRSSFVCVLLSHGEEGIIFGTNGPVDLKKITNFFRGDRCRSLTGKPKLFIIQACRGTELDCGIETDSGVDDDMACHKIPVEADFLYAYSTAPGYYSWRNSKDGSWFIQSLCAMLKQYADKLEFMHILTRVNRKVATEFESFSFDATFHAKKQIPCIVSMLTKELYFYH

[14] = molecular target: T5, Voltage-gated N-type calcium channel alpha-1B subunit/Amyloid beta A4 precursor protein-binding family A member 1; assay type: protein assay; remark: listed apart in the source
[15] = molecular target: T7, Sentrin-specific protease 8 (Homo sapiens, UniProt Q96LD8); assay type: functional;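 further: luminescence read-out of SENP8 inhibition, dose-response confirmation following an ultra-high-throughput screen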
T7 sequence (Q96LD8 whole entry): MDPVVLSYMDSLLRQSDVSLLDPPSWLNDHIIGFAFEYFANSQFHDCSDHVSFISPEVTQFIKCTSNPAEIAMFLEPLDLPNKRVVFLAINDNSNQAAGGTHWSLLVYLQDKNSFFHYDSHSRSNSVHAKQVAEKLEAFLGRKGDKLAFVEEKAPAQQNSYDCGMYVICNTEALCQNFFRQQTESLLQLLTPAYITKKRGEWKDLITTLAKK

[16] = molecular target: T8, Sentrin-specific protease 7 (Homo sapiens, UniProt Q9BQF6); assay type: functional;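 further: Luminescence-based dose-response confirmation of ultra-high-throughput screening hits, measuring inhibition of SENP7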
T8 sequence (Q9BQF6 whole entry): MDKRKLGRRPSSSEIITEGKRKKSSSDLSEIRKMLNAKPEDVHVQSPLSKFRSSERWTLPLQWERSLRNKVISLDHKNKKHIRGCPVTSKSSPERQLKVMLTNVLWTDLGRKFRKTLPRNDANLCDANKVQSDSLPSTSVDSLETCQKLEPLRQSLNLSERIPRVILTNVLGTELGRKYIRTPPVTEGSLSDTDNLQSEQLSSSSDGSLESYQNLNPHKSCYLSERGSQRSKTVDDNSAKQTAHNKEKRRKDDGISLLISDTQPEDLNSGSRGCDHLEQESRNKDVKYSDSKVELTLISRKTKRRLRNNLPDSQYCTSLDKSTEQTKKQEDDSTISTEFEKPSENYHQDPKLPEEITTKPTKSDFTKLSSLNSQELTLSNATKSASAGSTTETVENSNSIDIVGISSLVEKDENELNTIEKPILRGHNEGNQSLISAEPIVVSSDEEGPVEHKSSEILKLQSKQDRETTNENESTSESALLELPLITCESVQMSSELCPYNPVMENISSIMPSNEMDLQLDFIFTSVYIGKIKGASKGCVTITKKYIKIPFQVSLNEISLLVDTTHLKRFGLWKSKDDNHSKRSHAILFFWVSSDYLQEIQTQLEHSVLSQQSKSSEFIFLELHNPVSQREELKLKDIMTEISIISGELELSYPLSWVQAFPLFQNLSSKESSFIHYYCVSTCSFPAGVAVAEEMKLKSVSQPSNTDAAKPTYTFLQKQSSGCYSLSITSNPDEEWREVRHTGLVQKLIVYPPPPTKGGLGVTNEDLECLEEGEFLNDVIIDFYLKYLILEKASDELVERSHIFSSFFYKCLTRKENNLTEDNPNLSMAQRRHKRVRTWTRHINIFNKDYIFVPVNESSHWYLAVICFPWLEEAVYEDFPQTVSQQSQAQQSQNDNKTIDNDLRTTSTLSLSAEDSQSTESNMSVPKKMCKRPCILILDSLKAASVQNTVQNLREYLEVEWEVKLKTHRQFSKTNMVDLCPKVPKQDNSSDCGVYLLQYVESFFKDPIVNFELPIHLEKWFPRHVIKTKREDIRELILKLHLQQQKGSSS

Chain of Ion channel NompC (Q7T1G6 whole entry): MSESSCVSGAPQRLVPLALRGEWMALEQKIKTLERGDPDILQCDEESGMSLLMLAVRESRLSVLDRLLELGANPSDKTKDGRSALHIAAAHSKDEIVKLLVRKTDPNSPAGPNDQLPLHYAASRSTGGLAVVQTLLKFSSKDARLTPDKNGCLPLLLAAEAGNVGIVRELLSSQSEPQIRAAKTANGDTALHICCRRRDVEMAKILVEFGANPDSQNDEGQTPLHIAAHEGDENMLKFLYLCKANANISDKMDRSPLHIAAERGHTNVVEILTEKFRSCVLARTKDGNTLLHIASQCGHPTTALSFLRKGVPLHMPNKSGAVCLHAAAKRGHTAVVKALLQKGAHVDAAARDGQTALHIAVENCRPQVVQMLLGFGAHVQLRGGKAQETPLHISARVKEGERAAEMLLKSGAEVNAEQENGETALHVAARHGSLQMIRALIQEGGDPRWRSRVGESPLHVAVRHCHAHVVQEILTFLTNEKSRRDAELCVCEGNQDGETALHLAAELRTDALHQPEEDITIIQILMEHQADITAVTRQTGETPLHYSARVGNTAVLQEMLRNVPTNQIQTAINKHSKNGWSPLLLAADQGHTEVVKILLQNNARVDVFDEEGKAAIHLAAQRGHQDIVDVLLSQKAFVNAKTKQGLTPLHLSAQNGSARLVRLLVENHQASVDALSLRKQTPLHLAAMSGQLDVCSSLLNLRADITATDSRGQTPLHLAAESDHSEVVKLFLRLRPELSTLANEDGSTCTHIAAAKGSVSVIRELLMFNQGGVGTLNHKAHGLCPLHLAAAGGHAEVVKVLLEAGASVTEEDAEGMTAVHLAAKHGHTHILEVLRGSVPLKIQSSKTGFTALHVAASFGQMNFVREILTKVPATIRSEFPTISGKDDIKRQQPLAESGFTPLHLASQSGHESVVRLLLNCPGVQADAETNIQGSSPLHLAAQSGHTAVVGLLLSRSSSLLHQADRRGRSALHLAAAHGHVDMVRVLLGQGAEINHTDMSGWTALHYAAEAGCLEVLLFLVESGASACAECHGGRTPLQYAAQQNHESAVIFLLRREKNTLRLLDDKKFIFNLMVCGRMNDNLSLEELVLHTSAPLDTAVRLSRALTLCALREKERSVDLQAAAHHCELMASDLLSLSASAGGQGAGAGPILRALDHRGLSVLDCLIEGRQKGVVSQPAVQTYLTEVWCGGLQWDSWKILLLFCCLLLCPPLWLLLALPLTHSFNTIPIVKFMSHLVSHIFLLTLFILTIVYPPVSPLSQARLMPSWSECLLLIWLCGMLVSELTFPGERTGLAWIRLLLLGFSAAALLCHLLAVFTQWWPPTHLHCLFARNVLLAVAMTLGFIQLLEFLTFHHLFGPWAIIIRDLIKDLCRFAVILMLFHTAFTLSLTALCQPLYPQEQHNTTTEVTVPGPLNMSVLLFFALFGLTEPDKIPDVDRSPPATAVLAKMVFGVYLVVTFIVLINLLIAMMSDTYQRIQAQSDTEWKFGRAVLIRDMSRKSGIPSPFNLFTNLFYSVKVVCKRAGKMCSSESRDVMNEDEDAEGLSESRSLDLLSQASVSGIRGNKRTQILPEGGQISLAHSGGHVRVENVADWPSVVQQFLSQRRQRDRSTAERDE
T5 sequence (Q00975 whole entry): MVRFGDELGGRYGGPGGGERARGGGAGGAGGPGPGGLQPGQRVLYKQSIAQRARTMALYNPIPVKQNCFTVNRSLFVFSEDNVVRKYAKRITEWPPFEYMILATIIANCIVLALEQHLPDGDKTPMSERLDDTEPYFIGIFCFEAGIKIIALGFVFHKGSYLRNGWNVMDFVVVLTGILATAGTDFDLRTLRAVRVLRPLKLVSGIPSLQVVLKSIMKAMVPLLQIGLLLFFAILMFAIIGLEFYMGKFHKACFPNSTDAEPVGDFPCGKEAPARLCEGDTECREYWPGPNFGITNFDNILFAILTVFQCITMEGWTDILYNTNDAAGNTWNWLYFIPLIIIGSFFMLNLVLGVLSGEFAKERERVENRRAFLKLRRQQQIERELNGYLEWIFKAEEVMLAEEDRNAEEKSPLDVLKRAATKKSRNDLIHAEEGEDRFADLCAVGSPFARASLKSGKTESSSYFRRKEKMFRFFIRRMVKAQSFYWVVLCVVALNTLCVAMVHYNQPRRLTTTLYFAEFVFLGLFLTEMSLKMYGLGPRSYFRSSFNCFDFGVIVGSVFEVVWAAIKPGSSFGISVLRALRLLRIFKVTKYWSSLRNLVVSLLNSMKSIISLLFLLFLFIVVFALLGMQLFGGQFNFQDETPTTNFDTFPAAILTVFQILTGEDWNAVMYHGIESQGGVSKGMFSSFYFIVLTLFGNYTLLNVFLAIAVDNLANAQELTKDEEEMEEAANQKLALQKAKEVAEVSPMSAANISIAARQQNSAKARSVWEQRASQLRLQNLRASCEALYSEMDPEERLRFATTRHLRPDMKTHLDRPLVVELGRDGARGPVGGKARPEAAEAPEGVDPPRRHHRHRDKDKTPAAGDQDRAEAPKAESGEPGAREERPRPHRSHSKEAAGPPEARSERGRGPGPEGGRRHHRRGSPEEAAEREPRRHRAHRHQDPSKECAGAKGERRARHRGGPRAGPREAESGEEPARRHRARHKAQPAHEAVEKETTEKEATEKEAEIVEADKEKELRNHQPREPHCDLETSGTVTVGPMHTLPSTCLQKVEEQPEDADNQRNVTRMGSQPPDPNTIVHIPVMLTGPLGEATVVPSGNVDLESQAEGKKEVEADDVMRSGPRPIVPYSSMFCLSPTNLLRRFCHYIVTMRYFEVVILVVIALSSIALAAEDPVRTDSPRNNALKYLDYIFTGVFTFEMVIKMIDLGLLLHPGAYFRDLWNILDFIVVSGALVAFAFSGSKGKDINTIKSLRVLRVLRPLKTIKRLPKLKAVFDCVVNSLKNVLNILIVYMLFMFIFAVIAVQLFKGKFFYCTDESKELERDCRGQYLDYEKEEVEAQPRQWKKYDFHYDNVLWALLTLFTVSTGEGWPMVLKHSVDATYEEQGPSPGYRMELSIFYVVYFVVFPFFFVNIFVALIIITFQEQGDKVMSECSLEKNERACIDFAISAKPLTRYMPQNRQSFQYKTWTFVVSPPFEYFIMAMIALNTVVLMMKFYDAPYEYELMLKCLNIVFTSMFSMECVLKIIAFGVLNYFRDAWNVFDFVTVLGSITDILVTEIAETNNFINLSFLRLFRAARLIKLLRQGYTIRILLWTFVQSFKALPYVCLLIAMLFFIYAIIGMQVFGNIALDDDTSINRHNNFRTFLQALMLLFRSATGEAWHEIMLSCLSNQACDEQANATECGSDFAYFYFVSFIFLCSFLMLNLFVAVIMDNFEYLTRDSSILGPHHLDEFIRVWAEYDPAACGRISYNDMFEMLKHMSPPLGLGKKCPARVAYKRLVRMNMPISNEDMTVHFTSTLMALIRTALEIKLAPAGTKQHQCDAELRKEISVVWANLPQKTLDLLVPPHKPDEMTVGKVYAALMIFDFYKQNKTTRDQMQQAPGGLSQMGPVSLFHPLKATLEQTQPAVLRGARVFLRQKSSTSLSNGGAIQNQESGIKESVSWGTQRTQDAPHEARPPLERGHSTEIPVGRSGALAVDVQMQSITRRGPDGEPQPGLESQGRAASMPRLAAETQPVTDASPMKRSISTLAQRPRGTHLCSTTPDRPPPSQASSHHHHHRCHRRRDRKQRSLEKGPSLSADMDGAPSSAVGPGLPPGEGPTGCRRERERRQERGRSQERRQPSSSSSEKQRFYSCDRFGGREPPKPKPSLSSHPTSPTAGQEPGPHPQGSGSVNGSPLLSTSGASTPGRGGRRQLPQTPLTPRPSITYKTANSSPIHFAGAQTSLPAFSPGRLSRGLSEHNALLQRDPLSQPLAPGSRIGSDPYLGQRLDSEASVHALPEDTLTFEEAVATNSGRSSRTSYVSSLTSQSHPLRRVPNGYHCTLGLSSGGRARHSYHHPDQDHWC
T5 sequence (Q02410 whole entry): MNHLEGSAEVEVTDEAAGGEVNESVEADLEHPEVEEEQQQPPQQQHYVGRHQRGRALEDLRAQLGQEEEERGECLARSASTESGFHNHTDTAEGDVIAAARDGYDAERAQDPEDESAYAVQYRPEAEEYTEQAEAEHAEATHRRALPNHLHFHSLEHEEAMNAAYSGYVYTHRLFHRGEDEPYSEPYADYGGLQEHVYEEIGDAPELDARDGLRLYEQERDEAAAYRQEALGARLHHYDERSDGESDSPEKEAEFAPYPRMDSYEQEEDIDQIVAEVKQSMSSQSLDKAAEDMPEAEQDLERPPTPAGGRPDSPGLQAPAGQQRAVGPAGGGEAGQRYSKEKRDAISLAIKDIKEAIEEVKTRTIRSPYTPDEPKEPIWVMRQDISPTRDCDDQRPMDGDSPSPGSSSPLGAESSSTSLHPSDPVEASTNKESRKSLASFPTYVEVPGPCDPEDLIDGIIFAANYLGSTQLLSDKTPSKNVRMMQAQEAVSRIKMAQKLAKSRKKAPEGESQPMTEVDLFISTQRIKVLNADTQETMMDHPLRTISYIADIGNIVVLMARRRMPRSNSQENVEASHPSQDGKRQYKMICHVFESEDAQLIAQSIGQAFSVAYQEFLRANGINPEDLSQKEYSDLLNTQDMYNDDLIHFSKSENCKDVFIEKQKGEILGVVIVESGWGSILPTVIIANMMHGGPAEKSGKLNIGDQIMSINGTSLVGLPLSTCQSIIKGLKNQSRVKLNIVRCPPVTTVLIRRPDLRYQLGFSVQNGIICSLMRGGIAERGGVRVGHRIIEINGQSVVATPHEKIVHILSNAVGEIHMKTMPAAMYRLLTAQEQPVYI
Chain of Glyceraldehyde-3-phosphate dehydrogenase (P04406 whole entry): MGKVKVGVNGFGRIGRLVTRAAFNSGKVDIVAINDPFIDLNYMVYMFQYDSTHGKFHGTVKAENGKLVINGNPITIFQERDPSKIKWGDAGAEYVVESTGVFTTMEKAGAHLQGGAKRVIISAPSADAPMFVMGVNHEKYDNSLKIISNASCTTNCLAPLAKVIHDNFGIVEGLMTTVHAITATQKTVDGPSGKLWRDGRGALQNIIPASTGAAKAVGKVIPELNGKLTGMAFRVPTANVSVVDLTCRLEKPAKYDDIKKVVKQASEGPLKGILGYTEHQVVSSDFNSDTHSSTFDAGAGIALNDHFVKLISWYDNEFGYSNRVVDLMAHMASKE

## O=C(Nc1cccc(S(=O)(=O)N2CCCCC2)c1)c1ccc([N+](=O)[O-])o1
[1]
  AC50: 11.9 µM (active)
H4
  EC50: > 120 µM (not active)
cells
  IC50: 5.03 µM (active)
[2]
  CC50: 4.29 µM (active)
[3]
  CC50: 8.73 µM (active)
[4]
  AC50: 2.44 µM (active)
[5]
  EC50: > 120 µM (not active)
[6]
  EC50: > 120 µM (not active)

## Cc1ccc(NC(=O)Nc2nnc(-c3ccncc3)s2)cc1
HEK293 [7]
  EC50: 3.38 µM (active)
HEK293 [8]
  IC50: > 20 µM (inactive)
Mucolipin-3
  EC50: > 29.9 µM (not active)
HEK293 [9]
  IC50: 5.87 µM (active)
Ion channel NompC
  EC50: > 29.9 µM (inactive)

## C#CCSc1nnc(-c2cccc3ccccc23)o1
cells
  IC50: 9.32 µM (active)
[2]
  CC50: 15.7 µM (active)
[3]
  CC50: 20.6 µM (active)
Protein skinhead-1
  IC50: 10.2 µM (active)

## COc1ccc(S(=O)(=O)Nc2ccncn2)cc1OC
[10]
  IC50: > 100 µM (not active)
[11]
  IC50: > 100 µM (inactive)

## O=c1[nH]c(/C=C/c2ccccc2Cl)nc2ccccc12
[12]
  IC50: 1.4 µM (active)
[13]
  IC50: > 56.8 µM (not active)
Caspase-3
  IC50: 1.61 µM (active)
[14]
  IC50: > 50 µM (inactive)
[15]
  IC50: > 100 µM (inactive)
[16]
  IC50: 1.64 µM (active)

## COC(=O)C(/C=N/OCc1ccc([N+](=O)[O-])cc1)NC(=O)c1cccc(Cl)c1 (configuration not stated)
Mucolipin-3
  EC50: > 29.9 µM (not active)
Ion channel NompC
  EC50: > 29.9 µM (inactive)
